Laboratory results from paper PMC10813298, “Evidence of Guanidines Potential against Leishmania (Viannia) braziliensis: Exploring In Vitro Effectiveness, Toxicities and of Innate Immunity Response Effects” (Biomolecules, 2023).

Legend:
[1] = tested on: aorta; experiment: Vasodilator effect on aortic rings (KCl contraction); conditions: Cavia porcellus; guinea pig aortic rings
Description: (§1) Guinea pigs of either sex weighing between 250 or 380 g were utilized in this study. The animals were housed in a controlled environment in an air-conditioned room, maintaining a temperature of 22 to 24 °C and a relative humidity of 50% to 60%. A 12 h light–dark cycle was maintained.
(§2) On the day of the experiments, the animals were euthanized via cervical dislocation. The heart, aorta, pulmonary artery, and ileum were surgically removed and immersed in Krebs–Henseleit solution, with the following composition: NaCl 144.9 mM, KCl 4.73 mM, CaCl2 3.2 mM, MgSO4 1.18 mM, NaHCO3 24.9 mM, KH2PO4 1.18 mM, and glucose 10 mM, with the pH maintained at 7.2–7.4. This solution was continuously aerated with a mixture of 95% O2 and 5% CO2.
Papillary muscles were isolated from the right ventricle of the heart and meticulously cleared of Purkinje fibers to prevent spontaneous activity. To ensure adequate oxygen supply, only muscles with a diameter less than 0.87 mm were used. The right atrium was also dissected for assessment of chronotropic activity. […]
(§3) Following a 30 min control period, different concentrations of test compounds were cumulatively added to the bath solution every 45 min until a stable effect was achieved. The responses were recorded using a chart recorder (BD 112 Dual Channel, Kipp &Zonen, PO Box 507, 2624 BC, Delft, Holland) for subsequent evaluation. […]

[2] = tested on: pulmonary artery; experiment: Vasodilator effect on pulmonary artery rings (KCl contraction); conditions: guinea pig pulmonary artery rings
Description: as §1, §2
Papillary muscles were isolated from the right ventricle of the heart and meticulously cleared of Purkinje fibers to prevent spontaneous activity. To ensure adequate oxygen supply, only muscles with a diameter less than 0.87 mm were used. The right atrium was also dissected for assessment of chronotropic activity. Both the aorta and pulmonary artery were cleaned and cut into 5 mm rings, while the ileum was sectioned into pieces measuring 1 to 2 cm.
One end of the dissected tissues was securely tied with silver wire for attachment to a tissue holder, while the other end was connected to a force transducer (Transbridge™, 4-Channel Transducer Amplifier, World Precision Instruments, Sarasota, FL, USA). For contractile measurements, the terminal ileum was stimulated with 60 mM KCl, and the pulmonary artery and aorta rings were exposed to a 90 mM KCl solution. […]
as §3

[3] = tested on: Leishmania (Leishmania) amazonensis; parameters: method as in PMID 36551331; conditions: BALB/c-L. (L.) amazonensis, 0.13 mg/kg/day; cited from earlier work
[4] = tested on: LmCPB2.8ΔCTE; parameters: method as in PMID 36551331; conditions: previous findings; cited from earlier work

| EC50 [1] [µM] | EC50 ([2]; Cavia porcellus) [µM] | arteria pulmonalis ring contraction force [2] | Structure (SMILES) | reduction in the parasite load [3] [%] | inhibition of the enzyme LmCPB2.8ΔCTE [4] [%] |
| --- | --- | --- | --- | --- | --- |
| 16 | 48 | decrease | O=C(/N=C(/NCc1ccccc1)Nc1ccc(Br)cc1)c1ccccc1 [LQOF-G2, (Z)-N-benzoyl-N-benzyl-N-(4-bromophenyl)guanidine] | 46 |  |
|  |  |  | CC(C)(C)c1ccc(N/C(=N\C(=O)c2ccccc2)NCc2ccccc2)cc1 [LQOF-G6, (Z)-N-benzoyl-N-benzyl-N-(4-tert-butylphenyl)guanidine] |  | 73 |
